Measurements: patent US20040023862A1, “Uses of bombesin receptor 3” (SmithKline Beedham p. l. c., priority 2000, published 2004)
Non-standard residues stand in square brackets, D forms with d. Residues, ends and D or L forms follow the SMILES beside them. No end group written: not given here. *: point of attachment. pGlu = O=C1CC[C@@H](C(=O)O)N1; Nle = CCCC[C@H](N)C(=O)O; βAla = NCCC(=O)O; NHPr = CCCN*

T1: human bombesin receptor 3 (BRS3), endogenous in NCI-N417 cells (human) (UniProt P32247)
T1 sequence: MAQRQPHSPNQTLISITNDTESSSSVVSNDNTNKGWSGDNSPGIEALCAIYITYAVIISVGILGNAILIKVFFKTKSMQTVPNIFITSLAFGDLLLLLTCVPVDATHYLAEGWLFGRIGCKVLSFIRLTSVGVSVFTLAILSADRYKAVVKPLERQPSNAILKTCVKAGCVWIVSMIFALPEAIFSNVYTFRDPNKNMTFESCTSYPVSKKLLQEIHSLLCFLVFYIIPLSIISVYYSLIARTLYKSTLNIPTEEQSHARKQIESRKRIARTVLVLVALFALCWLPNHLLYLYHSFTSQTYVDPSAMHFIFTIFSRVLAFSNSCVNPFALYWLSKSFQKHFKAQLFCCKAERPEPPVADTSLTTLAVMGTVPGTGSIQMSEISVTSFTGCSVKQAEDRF

T2: BRS3 (Homo sapiens, UniProt P32247)
T2 sequence (P32247 1-399): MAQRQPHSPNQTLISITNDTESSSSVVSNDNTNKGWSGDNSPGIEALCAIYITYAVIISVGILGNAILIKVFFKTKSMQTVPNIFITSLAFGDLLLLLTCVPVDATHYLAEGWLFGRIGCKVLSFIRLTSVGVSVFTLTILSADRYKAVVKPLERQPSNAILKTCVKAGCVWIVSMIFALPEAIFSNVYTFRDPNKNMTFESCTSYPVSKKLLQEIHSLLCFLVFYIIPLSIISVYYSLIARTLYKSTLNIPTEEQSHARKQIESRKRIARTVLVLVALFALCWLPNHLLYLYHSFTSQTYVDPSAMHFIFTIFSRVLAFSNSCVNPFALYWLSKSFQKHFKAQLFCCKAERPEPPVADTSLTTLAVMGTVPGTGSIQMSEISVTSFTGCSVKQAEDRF

T3: endogenous human BRS-3 in NCI-N417 cells (Homo sapiens, UniProt P32247)
T3 construct: Agonist Pharmacology at the Endogenous Human BRS-3 in NCI-N417 Cells; endogenous in cells; host or cells: NCI-N417 cells
T3 sequence (P32247 1-399): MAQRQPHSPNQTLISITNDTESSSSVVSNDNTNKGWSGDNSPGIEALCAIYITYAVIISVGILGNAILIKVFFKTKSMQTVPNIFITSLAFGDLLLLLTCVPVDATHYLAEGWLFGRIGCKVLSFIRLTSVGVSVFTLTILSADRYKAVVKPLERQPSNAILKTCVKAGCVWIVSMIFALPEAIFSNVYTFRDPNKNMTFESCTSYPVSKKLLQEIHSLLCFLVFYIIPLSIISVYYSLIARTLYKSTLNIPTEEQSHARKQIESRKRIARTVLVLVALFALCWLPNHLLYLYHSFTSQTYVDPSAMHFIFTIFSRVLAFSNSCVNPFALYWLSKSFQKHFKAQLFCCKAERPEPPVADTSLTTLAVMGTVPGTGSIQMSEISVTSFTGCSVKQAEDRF


Molecular target: T1, human bombesin receptor 3 (BRS3), endogenous in NCI-N417 cells (human)
Test: cell-based or functional assay
Details: not given

Efficacy; intracellular calcium (FLIPR) in NCI-N417 cells | pEG50 [sic, pEC50]; intracellular calcium (Fluo-3AM fluorescence, FLIPR) in NCI-N417 cells | Molecule
23% | < 5 -log10(M) | Bombesin (peptide)
– | 5.54 -log10(M) | PG-L (peptide)
– | 5.59 -log10(M) | Ranantensin (peptide)
– | 5.96 -log10(M) | [D-Phe^1, Nle^9]litorin (peptide)
– | 6.83 -log10(M) | [D-Phe^6, Phe^13]BN(6-13) propylamide (peptide)
– | 7.88 -log10(M) | [D-Phe^6, βAla^11, Phe^13, Nle^14]Bombesin(6-14) (peptide)
– | 5.86 -log10(M) | [D-Phe^6]BN(6-13) propylamide (peptide)
– | 8.02 -log10(M) | [D-Tyr^6, βAla^11, Phe^13, Nle^14]Bombesin(6-14) (peptide)
20% | – | neuromedin C (NMC) (peptide)
– | 5.65 -log10(M) | GNLWATGHFM (peptide, UniProt P08949 47-56, looked up, species assumed, ends and bridges not checked) [neuromedin B (NMB)]
23% | < 5 -log10(M) | VPLPAGGGTVLTKMYPRGNHWAVGHLM (peptide, UniProt P07492 24-50, looked up, species assumed, ends and bridges not checked) [gastrin-releasing peptide (GRP)]
– | 5.73 -log10(M) | Ac-LWATGHFM (peptide, UniProt P08949 49-56, looked up, species assumed, ends and bridges not checked) [AcNMB(3-10)]

Molecular target: T2, BRS3
Test: not given
Details: background statement, in words; cited from earlier work

Molecule | affinity at BRS3
CSCC[C@H](NC(=O)[C@H](CC(C)C)NC(=O)[C@H](Cc1c[nH]cn1)NC(=O)CNC(=O)[C@@H](NC(=O)[C@H](C)NC(=O)[C@H](Cc1c[nH]c2ccccc12)NC(=O)[C@H](Cc1c[nH]cn1)NC(=O)[C@H](CC(N)=O)NC(=O)CNC(=O)[C@H](CCCNC(=N)N)NC(=O)[C@@H]1CCCN1C(=O)[C@H](Cc1ccc(O)cc1)NC(=O)[C@H](CCSC)NC(=O)[C@H](CCCCN)NC(=O)[C@@H](NC(=O)[C@H](CC(C)C)NC(=O)[C@@H](NC(=O)[C@@H](NC(=O)CNC(=O)CNC(=O)CNC(=O)[C@H](C)NC(=O)[C@@H]1CCCN1C(=O)[C@H](CC(C)C)NC(=O)[C@@H]1CCCN1C(=O)[C@@H](N)C(C)C)[C@@H](C)O)C(C)C)[C@@H](C)O)C(C)C)C(N)=O [GRP, gastrin-releasing peptide] | very low (high μM) affinity
neuromedin B [NMB] | very low (high μM) affinity

Molecular target: T3, endogenous human BRS-3 in NCI-N417 cells
Test: Agonist pharmacology, FLIPR intracellular calcium (Fluo-3AM) in NCI-N417 cells
Assay type: cell-based
Details: not given
Method: Agonist Pharmacology at the Endogenous Human BRS-3 in NCI-N417 Cells
NCI-N417 cells were seeded into Costar 96 well black walled plates (30,000 cells per well), cultured overnight in RPMI 1640 medium containing 10% foetal calf serum and 1% L-glutamine, and then loaded with the cytoplasmic calcium indicator Fluo-3AM (4 μM) in the presence of 2.5 mM probenecid at 37° C. for 60 min. The cells were then washed 4× with, and finally resuspended in, Tyrode's medium containing 2.5 mM probenecid. Fluorescence was then monitored using a FLIPR (λEX=488 nm, λEM=540 nm) before and after the addition of various ligands (10 pM-10 μM), as described previously (Smart et al (1999). Br. J. Pharmacol. 128:1-4).

Molecule | EC50
CCCC[C@H](NC(=O)[C@H](Cc1ccccc1)NC(=O)[C@H](Cc1c[nH]cn1)NC(=O)CNC(=O)[C@@H](NC(=O)[C@H](C)NC(=O)[C@H](Cc1c[nH]c2ccccc12)NC(=O)[C@H](CCC(N)=O)NC(=O)[C@H](N)Cc1ccccc1)C(C)C)C(N)=O [[D-Phe^1, Nle^9]litorin] | 1100 nM
CCCNC(=O)[C@H](Cc1ccccc1)NC(=O)[C@H](Cc1c[nH]cn1)NC(=O)CNC(=O)[C@@H](NC(=O)[C@H](C)NC(=O)[C@H](Cc1c[nH]c2ccccc12)NC(=O)[C@H](CCC(N)=O)NC(=O)[C@H](N)Cc1ccccc1)C(C)C [[D-Phe^6, Phe^13]BN(6-13) propylamide] (H-[dF]QWAVGHF-NHPr; N-terminus assumed) | 148 nM
CCCNC(=O)[C@H](CC(C)C)NC(=O)[C@H](Cc1c[nH]cn1)NC(=O)CNC(=O)[C@@H](NC(=O)[C@H](C)NC(=O)[C@H](Cc1c[nH]c2ccccc12)NC(=O)[C@H](CCC(N)=O)NC(=O)[C@H](N)Cc1ccccc1)C(C)C [[D-Phe^6]BN(6-13) propylaniide] | 1380 nM

Same assay, conditions: calcium mobilisation, FLIPR, NCI-N417 cells, ligands 10 pM-10 μM; read-out: pEG50 (the source's name) (converted)

Molecule | EC50
CCCC[C@H](NC(=O)[C@H](Cc1ccccc1)NC(=O)[C@H](Cc1cnc[nH]1)NC(=O)CCNC(=O)[C@@H](NC(=O)[C@H](C)NC(=O)[C@H](Cc1c[nH]c2ccccc12)NC(=O)[C@H](CCC(N)=O)NC(=O)[C@H](N)Cc1ccc(O)cc1)C(C)C)C(N)=O [[D-Tyr^6, βAla^11, Phe^13, Nle^14]Bombesin(6-14)] (H-[dY]QWAV[βAla]HF[Nle]-NH2) | 9.55 nM

Same assay, conditions: calcium mobilisation, FLIPR, NCI-N417 cells; at 10 μM

Molecule | Efficacy
CSCC[C@H](NC(=O)[C@H](CC(C)C)NC(=O)[C@H](Cc1cnc[nH]1)NC(=O)CNC(=O)[C@@H](NC(=O)[C@H](C)NC(=O)[C@H](Cc1c[nH]c2ccccc12)NC(=O)[C@H](CCC(N)=O)NC(=O)[C@H](CC(N)=O)NC(=O)CNC(=O)[C@H](CC(C)C)NC(=O)[C@H](CCCN=C(N)N)NC(=O)[C@H](CCC(N)=O)NC(=O)[C@@H]1CCC(=O)N1)C(C)C)C(N)=O [Bombesin] | 23% at 10 μM

Same assay, conditions: calcium mobilisation, FLIPR, NCI-N417 cells; efficacy in words

Molecule | Efficacy
CSCC[C@H](NC(=O)[C@H](Cc1ccccc1)NC(=O)[C@H](Cc1c[nH]cn1)NC(=O)CNC(=O)[C@@H](NC(=O)[C@H](C)NC(=O)[C@H](Cc1c[nH]c2ccccc12)NC(=O)[C@H](CCC(N)=O)NC(=O)[C@@H]1CCCN1C(=O)CNC(=O)CNC(=O)CNC(=O)[C@@H]1CCC(=O)N1)C(C)C)C(N)=O [PG-L] ([pGlu]GGGPQWAVGHFM-NH2; C-terminus assumed) | full
CSCC[C@H](NC(=O)[C@H](Cc1ccccc1)NC(=O)[C@H](Cc1c[nH]cn1)NC(=O)CNC(=O)[C@@H](NC(=O)[C@H](C)NC(=O)[C@H](Cc1c[nH]c2ccccc12)NC(=O)[C@H](CCC(N)=O)NC(=O)[C@@H]1CCCN1C(=O)[C@@H](NC(=O)[C@@H]1CCC(=O)N1)C(C)C)C(C)C)C(N)=O [Ranantensin] ([pGlu]VPQWAVGHFM-NH2; C-terminus assumed) | full
CCCC[C@H](NC(=O)[C@H](Cc1ccccc1)NC(=O)[C@H](Cc1c[nH]cn1)NC(=O)CNC(=O)[C@@H](NC(=O)[C@H](C)NC(=O)[C@H](Cc1c[nH]c2ccccc12)NC(=O)[C@H](CCC(N)=O)NC(=O)[C@H](N)Cc1ccccc1)C(C)C)C(N)=O [[D-Phe^1, Nle^9]litorin] | full
CCCNC(=O)[C@H](Cc1ccccc1)NC(=O)[C@H](Cc1c[nH]cn1)NC(=O)CNC(=O)[C@@H](NC(=O)[C@H](C)NC(=O)[C@H](Cc1c[nH]c2ccccc12)NC(=O)[C@H](CCC(N)=O)NC(=O)[C@H](N)Cc1ccccc1)C(C)C [[D-Phe^6, Phe^13]BN(6-13) propylamide] (H-[dF]QWAVGHF-NHPr; N-terminus assumed) | full
CCCNC(=O)[C@H](CC(C)C)NC(=O)[C@H](Cc1c[nH]cn1)NC(=O)CNC(=O)[C@@H](NC(=O)[C@H](C)NC(=O)[C@H](Cc1c[nH]c2ccccc12)NC(=O)[C@H](CCC(N)=O)NC(=O)[C@H](N)Cc1ccccc1)C(C)C [[D-Phe^6]BN(6-13) propylaniide] | full
CCCC[C@H](NC(=O)[C@H](Cc1ccccc1)NC(=O)[C@H](Cc1c[nH]cn1)NC(=O)CCNC(=O)[C@@H](NC(=O)[C@H](C)NC(=O)[C@H](Cc1c[nH]c2ccccc12)NC(=O)[C@H](CCC(N)=O)NC(=O)[C@H](N)Cc1ccc(O)cc1)C(C)C)C(N)=O [[D-Tyr^6, βAla^11, Phe^13, Nle^14]Bombesin(6-14)] (H-[dY]QWAV[βAla]HF[Nle]-NH2) | full
AcNMB(3-10) | full
neuromedin B [NMB] | full
